Measurements from US8772323B2, “Benzoxazole- and tetrahydrobenzoxazole-substituted pyridazinones as GPR119 agonists” (Boehringer Ingelheim International GmbH, priority 2010, dated 2014).

Columns and labels:
human GPR119 = human GPR119 (Homo sapiens (Human), UniProt Q8TDV5); experiment: AlphaScreen cAMP assay in Min-6/hGPR119 cells (GPR119 activation, intracellular cAMP); type: cell-based; conditions: MIN6 cells stably transfected with human GPR119; 45 minutes' incubation at RT; AlphaScreen cAMP Assay Kit
How it was run: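 MIN6 cells stably expressing human GPR119 plated 10000 cells/well and held 24 h at 37° C. Compounds applied in stimulating buffer, pH 7.4, with 0.5 mM IBMX, 0.1% BSA, 1% DMSO final, for 45 min at RT. Intracellular cAMP read by AlphaScreen.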

human GPR119, sequence (Q8TDV5 whole entry): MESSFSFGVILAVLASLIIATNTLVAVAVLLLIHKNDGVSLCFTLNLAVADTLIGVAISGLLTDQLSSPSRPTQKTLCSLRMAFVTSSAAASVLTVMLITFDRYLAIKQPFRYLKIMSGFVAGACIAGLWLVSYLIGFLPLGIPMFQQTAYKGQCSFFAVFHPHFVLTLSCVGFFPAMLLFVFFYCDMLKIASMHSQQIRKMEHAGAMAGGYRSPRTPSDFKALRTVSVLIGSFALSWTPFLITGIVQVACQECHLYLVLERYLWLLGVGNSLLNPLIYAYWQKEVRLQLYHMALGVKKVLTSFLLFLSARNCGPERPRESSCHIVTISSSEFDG

EC50 (human GPR119) [µM] | melting point [°C] | SMILES
4.54 | 218 | CC1CC(=O)NN=C1c1ccc2nc(-c3cccnc3)oc2c1 (stereo not drawn) [Example 110, 5-methyl-6-(2-pyridin-3-yl-benzoxazol-6-yl)-4,5-dihydro-2H-pyridazin-3-one]
1.13 | 235 | CC1CC(=O)NN=C1c1ccc2nc(N3CCCCC3)oc2c1 (stereo not drawn) [Example 115, 5-methyl-6-(2-piperidin-1-yl-benzoxazol-6-yl)-4,5-dihydro-2H-pyridazin-3-one]
3.45 | 209 | CC1CC(=O)NN=C1c1ccc2nc(N3CCOCC3)oc2c1 (stereo not drawn) [Example 116, 5-methyl-6-(2-morpholine-1-yl-benzoxazol-6-yl)-4,5-dihydro-2H-pyridazin-3-one]
